Tests used:
[1] = biological target: GluN1/GluN2A-N615K receptors (Homo sapiens, UniProt Q05586+Q12879, N615K); format: cell-based
[2] = biological target: T1, GluN1/GluN2A-L812M receptors (Homo sapiens, UniProt Q05586+Q12879, L812M); format: cell-based
GluN1/GluN2A receptors = GluN1/GluN2A receptors (Homo sapiens, UniProt Q05586+Q12879); assay: Screening of FDA-approved NMDAR antagonists, TEVC oocyte recordings, wild type; format: cell-based
seizures of the proband = assay: Antiepileptic treatment of the proband; format: in vivo, human
[3] = used in children; cited from earlier work
[4] = test system: animal models of epilepsy; details: wide range of animal models of epilepsy; cited from earlier work
[5] = biological target: T1, GluN1/GluN2A-L812M receptors; assay: Agonist potency, TEVC recordings from Xenopus laevis oocytes, L812M mutant; format: cell-based
[6] = read-out: percent maximal inhibition

SMILES: COc1ccc2c(c1)[C@]13CCCC[C@@H]1[C@H](C2)N(C)CC3 [Dextromethorphan]
- IC50 [1]: 9 ± 1.3 µM
- enhanced potency on N615K-containing NMDARs in comparison to wild-type NMDARs ([1]; N615K compared with wild type): twofold
- inhibition at 300 µM [1, 6]: 92%
- IC50 [2]: 33 ± 4.8 µM
- inhibition at 300 µM [2, 6]: 91%
- inhibition at 300 µM (GluN1/GluN2A receptors; [6]): 88%

SMILES: NC12CC3CC(CC(C3)C1)C2 [Amantadine]
- IC50 [1]: 458 ± 25 µM
- inhibition at 1000 µM [1, 6]: 76%
- IC50 [2]: 113 ± 5.1 µM
- inhibition at 1000 µM [2, 6]: 88%
- IC50 (GluN1/GluN2A receptors): 110 ± 11 µM
- inhibition at 1000 µM (GluN1/GluN2A receptors; [6]): 94%

SMILES: CC12CC3CC(C)(C1)CC(N)(C3)C2 [Memantine]
- cognitive ability (seizures of the proband; memantine treatment): remained unchanged
- interictal EEG after treatment (seizures of the proband; postmemantine EEG, wakefulness and sleep): no asymmetries or epileptiform discharges
- myoclonic jerks (seizures of the proband; upon memantine treatment): ceased
- side effects (seizures of the proband; ~0.5 mg/kg per day): without side effects
- inhibition at 100 µM [1, 6]: 69%
- inhibition at 100 µM [2, 6]: 87%
- inhibition at 100 µM (GluN1/GluN2A receptors; [6]): 89%
- toxicity in children [3]: without toxicity
- anticonvulsant effects [4]: anticonvulsant effects

SMILES: NCC(=O)O [Glycine]
- reduction in EC50 (increased potency), GluN2A-L812M vs wild type ([5]; L812M compared with wild type): eightfold
- EC50 ([5]; read-out: Glycine EC50, L812M, in the presence of 100 μmol/L glutamate, -40 mV): 0.14 ± 0.01 µM

SMILES: CN1CC[C@@]23CCCC[C@@H]2[C@@H]1Cc1ccc(O)cc13 [Dextrorphan]
- IC50 [1]: 0.34 ± 0.06 µM
- inhibition at 30 µM [1, 6]: 96%
- IC50 [2]: 6.1 ± 1.3 µM
- inhibition at 30 µM [2, 6]: 85%
- IC50 (GluN1/GluN2A receptors): 1.9 ± 0.3 µM
- inhibition at 30 µM (GluN1/GluN2A receptors; [6]): 92%

From article PMC4019449 (Annals of Clinical and Translational Neurology, 2014)
